These results are taken from US20080226718A1, “Indole and Azaindole Derivatives For the Treatment of Inflammatory and Autoimmune Diseases” (Brane Discovery S.r.l, priority 2005, published 2008).

For assay [1], the system named is encephalitogenic lymphocytes. Description: Chemokine-induced adhesion of murine encephalitogenic T cells to ICAM-1. The assay is classed as cell-based, SJL mice. As to conditions: ICAM-1; for Chemokine-induced Adhesion in encephalitogenic lymphocytes, Mean counts ± S.D., in presence of MIP3-β stimulation: 1 μM CCL19 (MIP-3beta). As to the method:
(§1) Adhesion was performed on purified integrin ligands and was evaluated as reported in Constantin G. et al., Immunity, 16, 759-769, 2000. Briefly, primary naïve lymphocytes, polymorphonuclear neutrophils (PMNs) or monocytes were isolated form healthy donors. In other experiments, murine autoreactive T cells were obtained from SJL mice immunized with PLP139-151 as described (Piccio L. et al., J. Immunol, 168, 1940-1949, 2002). Cells were resuspended at 4×10^6/ml in PBS, CaCl2, MgCl2 1 mM, 10% FCS, pH 7.2. Adhesion assays were performed on eighteen well glass slides coated overnight at 4° C. with ligands for CR3 (fibrinogen) or LFA-1 (ICAM-1). 20 μl of cell suspension were added to the wells and stimulated at 37° C. with 5 μl of agonists prior to washing, fixation and computer-assisted enumeration of bound cells.
(§2) Integrin activation was measured as induction of rapid adhesion triggered by the classical chemoattractant N-formyl-L-methionyl-L-leucyl-phenylalanine (fMLP) (100 nM) or by the CC chemokine MIP3β (CCL19, 1 μM). PMNs and monocytes were triggered to adhere to fibrinogen (CR3 ligand); naive human lymphocytes or murine encephalitogenic T cells were triggered to adhere to ICAM-1 (LFA-1 ligand). Triggered adhesion was evaluated after 2 min of stimulation under static conditions. The cells were pretreated at 37° C. for 30-60 min with the indicated concentrations of the test compound. Results are expressed as percentage of inhibition over control (=100%) and are the mean of three experiments in the case of human leukocytes. Results are expressed as mean counts and are the mean counts ±S.D of three experiments and are the mean of three experiments in the case of murine encephalitogenic lymphocytes.
Chemokines trigger rapid arrest of lymphocytes in blood vessels through pertussis toxin-sensitive G protein coupled receptors. Rapid adhesion to purified ICAM-1 was measured in in vitro adhesion assays using control/untreated cells and lymphocytes treated with concentration between 5-50 μM for 1 h. Autoreactive lymphocytes were then stimulated with 1 μM CCL19 (MIP-3beta) for 3 min. […] These compounds were already efficient in blocking adhesion using a concentration of 5 μM for the cell treatment.

The subject of assay [2] is encephalitogenic lymphocytes. Description: Spontaneous adhesion of encephalitogenic T cells on purified ICAM-1. In kind it is cell-based, SJL mice. Particulars: Mus musculus, Lymphocyte, 1 h; for inhibition at 5 µM: [cpd] 5 μM, read-out: Inhibition of Spontaneous Adhesion in encephalitogenic lymphocytes (% of control/non-treated cells) ICAM-1; for inhibition at 10 µM: [cpd] 10 μM; for inhibition at 10 µM / inhibition at 50 µM: read-out: Inhibition of Spontaneous Adhesion in encephalitogenic lymphocytes (% of control/non-treated cells) ICAM-1 (converted); for inhibition at 50 µM: [cpd] 50 μM. As to the method:
Spontaneous adhesion of encephalitogenic lymphocytes was measured in adhesion assays on purified ICAM-1 and VCAM-1 as previously described (Constantin G. et al., J. Immunol. 162, 1144-1149, 1999). Autoreactive T cells were obtained from SJL mice immunized with PLP139-151 as described (Piccio L. et al., J. Immunol. 168, 1940-1949, 2002). Lymphocytes were treated with test compound at concentrations between 5-100 μM for 1 h, while control/untreated cells were treated with vehicle (DMSO). Results are expressed as percentage of inhibition over control (=100%) ±S.D and are the mean of three-four experiments.
ICAM-1 and VCAM-1 are adhesion molecules from the family of immunoglobulins and control the migration of lymphocytes through the endothelium during inflammatory responses. Encephalitogenic T cells are activated lymphocytes displaying spontaneous adhesion on ICAM-1 and VCAM-1 and have increased migration capacities in inflammation sites. Spontaneous adhesion of encephalitogenic lymphocytes was measured in adhesion assays on purified ICAM-1 and VCAM-1 as described in the method.

The subject of assay [3] is PMNs. Description: Chemokine-induced rapid adhesion of PMNs to fibrinogen (fMLP). The assay is classed as cell-based. Particulars: Homo sapiens, 2 min, fMLP 100 nM; for inhibition at 10 µM: [cpd] 10 μM; for inhibition at 25 µM: [cpd] 25 μM; for inhibition at 50 µM: [cpd] 50 μM. As to the method:
as §1, §2
(§3) Integrin activation was measured as induction of rapid adhesion triggered by the “classical” chemoattractant fMLP (100 nM) or by the CC chemokine MIP3β (CCL19, 1 μM). PMNs were triggered to adhere to fibrinogen (CR3 ligand); lymphocytes were triggered to adhere to ICAM-1 (LFA-1 ligand).

Assay [4] concerns lymphocytes. Description: Chemotaxis assay, lymphocytes (MIP-3β). The assay is classed as cell-based. As to conditions: Homo sapiens, Lymphocyte, MIP-3β 100 nM, 4 h; for inhibition at 10 µM: [cpd] 10 μM, read-out: Inhibition of Chemotaxis (%) Lymphocytes (MIP3-β); for inhibition at 25 µM: [cpd] 25 μM; for inhibition at 25 µM / inhibition at 50 µM: read-out: Inhibition of Chemotaxis (%) Lymphocytes (MIP3-β) (converted); for inhibition at 50 µM: [cpd] 50 μM. Here is the method:
(§4) PMNs and monocytes migration was assessed using 1 or 3-μm pore size transwells (Bio-Coat Becton-Dickinson), while lymphocytes by using 5-elm pore size transwells.
(§5) Cells were in RPMI1640, containing 10% heat-inactivated Fetal Calf Serum (FCS) and 20 mM HEPES, pH 7.3, at 2×10^6/ml. 100 μl of cell suspension were added to the top well, and 600 μl of medium, containing chemoattractants and test compound, were added to the bottom well. Migration was evaluated after 2 h for PMNs and monocytes and after 4 h for lymphocytes. fMLP 10 nM (PMNs and monocytes) and MIP-3β 100 nM (lymphocytes) were utilized as chemoattractants. After fixation with 1.5% glutaraldehyde, migrated cells were counted by fluorescence-activated celli sorting using polystyrene beads (Polyscience) as an internal standard (Campbell J. J. et al. J. Cell. Biol. 134, 255-266, 1996; Laudanna C. et al. J. Biol. Chem. 273,46, 30306-30315, 1998).
(§6) Results are expressed as percentage of inhibition over control (=100%), and are the mean of three experiments.

Assay [5] deals with PMNs. Description: Chemotaxis assay, PMNs (fMLP). Particulars: Homo sapiens, fMLP 10 nM, 2 h; for inhibition at 10 µM: [cpd] 10 μM; for inhibition at 25 µM: [cpd] 25 μM; for inhibition at 50 µM: [cpd] 50 μM. In kind it is cell-based. Here is the method:
as §4, §5, §6

The subject of assay [6] is lymphocytes. Description: Chemokine-induced rapid adhesion of lymphocytes to ICAM-1 (MIP3β). In kind it is cell-based. Particulars: Homo sapiens, Lymphocyte, MIP3β 1 μM; for inhibition at 10 µM: [cpd] 10 μM, read-out: Inhibition of Adhesion (%) Lymphocytes (MIP3-β); for inhibition at 25 µM: [cpd] 25 μM; for inhibition at 25 µM / inhibition at 50 µM: read-out: Inhibition of Adhesion (%) Lymphocytes (MIP3-β) (converted); for inhibition at 50 µM: [cpd] 50 μM. As to the method:
as §1, §2, §3

The subject of assay [7] is monocytes. Description: Chemotaxis assay, monocytes (fMLP). The assay is classed as cell-based. Particulars: Homo sapiens, Monocyte, fMLP 10 nM, 2 h; for inhibition at 10 µM: [cpd] 10 μM; for inhibition at 25 µM: [cpd] 25 μM; for inhibition at 50 µM: [cpd] 50 μM. As to the method: as §4, §5, §6
Assay [8] relates to monocytes. As to the kind of experiment: Chemokine-induced rapid adhesion of monocytes to fibrinogen (fMLP). In kind it is cell-based. Particulars: Homo sapiens, Monocyte, fMLP 100 nM; for inhibition at 10 µM: [cpd] 10 μM; for inhibition at 25 µM: [cpd] 25 μM; for inhibition at 50 µM: [cpd] 50 μM. Here is the method:
as §1, §2

`COc1ccc(-c2c(C(N)=O)[nH]c3cc(OC)c(OC)cc23)cc1` [Example 14]: the “Chemokine-induced Adhesion in encephalitogenic lymphocytes, Mean counts ± S.D., in presence of MIP3-β stimulation” value worked out at 120.3 ± 9.8 in assay [1] ([cpd] 1 μM), 101.2 ± 6.1 in assay [1] ([cpd] 5 μM) and 56.8 ± 2.2 in assay [1] ([cpd] 50 μM). Also, the entries for the “Adhesion in encephalitogenic lymphocytes, Mean counts ± S.D., in absence of MIP3-β stimulation” value in assay [1] ([cpd] 1 μM), in assay [1] ([cpd] 5 μM) and in assay [1] ([cpd] 50 μM) were 67.6 ± 2.0, 41.8 ± 4.2 and 20.9 ± 11.7, respectively.
With `COc1ccc(-c2c(C#N)n(CCN(C)C)c3cc(OC)c(OC)cc23)cc1` [Example 18], in assay [2], the inhibition at 5 µM amounted to 28.7%. The inhibition at 10 µM in assay [2] was 36.8%; with PMNs [3] it was 2.2%; in the assay on lymphocytes [4] it was 51%; with PMNs [5] it was 52.3%; in the assay on lymphocytes [6] it was 66.3%; in the assay on monocytes [7] it was 17.3%. The compound also showed an inhibition at 10 µM in the assay on monocytes [8] of 7.8%. In addition, the inhibition at 50 µM in assay [2] was 96.9%; in the assay with PMNs [3], 26.7%; with lymphocytes [4], 92.3%; in the assay with PMNs [5], 91.2%; in the assay with lymphocytes [6], 95.1%; with monocytes [7], 84.5%. Also, in the assay with monocytes [8], the inhibition at 50 µM is 31.2%. The inhibition at 25 µM was 10.4% in the assay on PMNs [3]; 86.7% in the assay on lymphocytes [4]; 77.6% with PMNs [5]; 91.4% with lymphocytes [6]; 62.1% in the assay with monocytes [7]; 14.7% in the assay on monocytes [8].
On to `COc1cc2[nH]c(C(=O)N(C)C)c(-c3ccccc3)c2cc1OC` [Example 46], for which, in assay [2], the inhibition at 5 µM was found to be 15.8%. Moreover, the inhibition at 10 µM was 25.9% in assay [2]; 16.7% in the assay with PMNs [3]; 19.9% in the assay with lymphocytes [4]; 65.3% in the assay with PMNs [5]; 34.1% in the assay with lymphocytes [6]; 48.2% with monocytes [7]. The compound also had an inhibition at 10 µM in the assay with monocytes [8] of 12.6%. Moreover, the inhibition at 50 µM was 96.3% in assay [2]; 38.4% with PMNs [3]; 85% in the assay on lymphocytes [4]; 93.1% in the assay with PMNs [5]; 67.1% in the assay with lymphocytes [6]; 89.9% with monocytes [7]. The inhibition at 50 µM in the assay on monocytes [8] is 37.6%. Also, the inhibition at 25 µM in the assay on PMNs [3] was 28.7%; in the assay on lymphocytes [4] it was 45%; with PMNs [5] it was 74.5%; in the assay with lymphocytes [6] it was 58.8%; in the assay with monocytes [7], 63.8%; with monocytes [8], 32.2%.
For `COc1cc2[nH]c(C(=O)N3CCOCC3)c(-c3ccccc3)c2cc1OC` [Example 47], the inhibition at 5 µM in assay [2] was 7.1%. Further, the inhibition at 10 µM was 17.2% in assay [2]; 16.6% in the assay with PMNs [3]; 44.3% in the assay on lymphocytes [4]; 75.4% in the assay on PMNs [5]; 43.8% with lymphocytes [6]; 56.5% in the assay with monocytes [7]. In the assay with monocytes [8], this compound came in with an inhibition at 10 µM of 8.7%. Besides, the inhibition at 50 µM in assay [2] was 93.4%; in the assay on PMNs [3], 45.4%; in the assay with lymphocytes [4], 88.2%; with PMNs [5], 96.1%; in the assay with lymphocytes [6] it was 77.5%; in the assay with monocytes [7] it was 93.9%. For the same compound, in the assay with monocytes [8], the inhibition at 50 µM was 22.4%. Further, the inhibition at 25 µM is 37.1% in the assay on PMNs [3]; 66.6% in the assay with lymphocytes [4]; 87.5% in the assay with PMNs [5]; 52.5% with lymphocytes [6]; 82.4% with monocytes [7]; 14.4% in the assay on monocytes [8].
`COc1ccc(-c2c3n(c4cc(OC)c(OC)cc24)CCOC3)cc1` [Example 76] had an inhibition at 100 µM with PMNs [3] ([cpd] 100 μM) of 66%. For the same compound, the “Chemokine-induced Adhesion in encephalitogenic lymphocytes, Mean counts ± S.D., in presence of MIP3-β stimulation” value is given as 102.9 ± 2.9 in assay [1] ([cpd] 1 μM), 87.7 ± 12.0 in assay [1] ([cpd] 5 μM) and 66.6 ± 1.8 in assay [1] ([cpd] 50 μM). In addition, the “Adhesion in encephalitogenic lymphocytes, Mean counts ± S.D., in absence of MIP3-β stimulation” value in assay [1] ([cpd] 1 μM) is 36.9 ± 4.0; in assay [1] ([cpd] 5 μM) it was 28.3 ± 8.9; in assay [1] ([cpd] 50 μM), 23.0 ± 1.9.
